Data from patent US20240206469A1, “PHOSPHORUS USE EFFICIENCY ENHANCERS AS PLANT GROWTH PROMOTORS” (EUROCHEM ANTWERPEN, priority 2021, published 2024).

Tests used:
[1] = test system: Arabidopsis; test: Arabidopsis horizontal plate leaf area assay; format: in vivo, Arabidopsis thaliana; conditions: 21 days after germination
Method: All Arabidopsis plant experiments were performed using the Arabidopsis thaliana Columbia-0 background. The Arabidopsis pSPX1::GUS line is described in the Plant Journal 2008, 54: 965-975. For rice, the cultivar Nipponbare was used. For maize, the cultivars DKC 2931 and B104 were used for regular pot experiments and sand-based pot experiments, respectively. For soybean, the cultivar Primus was used. […] The medium was solidified due to the addition of 0.6% Gelrite, unless stated otherwise. […]
Arabidopsis primary root growth experiments were done on MS1/2 on vertical standing plates and roots were measured 11 days after germination. Roots were imaged using a flatbed scanner (EPSON Expression 11000XL) and root length was measured using ImageJ software. Arabidopsis shoot biomass was determined in 11 days after germination and growth on vertical standing plates with modMS. Arabidopsis leaf area was measured 21 days after germination on horizontal plates with modMS medium. Plates were scanned from the top using a flatbed scanner (EPSON Expression 11000XL) and the visible leaf area was measured using ImageJ software. […] Plant height was measured 11 days after germination. […] Plant height was measured 13 days after germination. […]

[2] = test system: Maize DKC2931; test: Long-term maize pot experiment, DKC2931 (PHENOVISION); format: in vivo, maize cultivar DKC 2931
Method: Regular Arabidopsis, soybean and maize pot experiments used an unfertilized potting soil, which was supplemented at the start of the experiment with 50 ml H2O containing 0.25 g/l NH4NO3 and 0.44 g/l (high phosphate) or no (maize and soybean) or 0.11 g/l KH2PO (Arabidopsis) for low phosphate conditions. For the sand-based maize pot experiment, sand was supplemented with 50 ml H2O containing 0.25 g/l NH4NO3 and 0.38 g/l (high phosphate) or 0.02 g/l (low phosphate) KH2PO4. Potassium was balanced via addition of KCl. Compound concentration was 10 μM, calculated based on the total water content after watering, and was added at the start of the experiment (Arabidopsis) or once a week (maize). Indexed chlorophyll contents were received via a SPAD 502 Plus Chlorophyll Meter. All parameters in the sand experiment, except the rate of leaf 4 (measured the first 4 days after emergence), were measured 19 days after sowing. Measurements in the pot experiments with potting soil were done after 4 weeks of growth, except for leaf 5, which was measured at 26 days. One long-term maize pot experiment was conducted with the DKC 2931 (2.5 months) and B104 (3 months) cultivars on the PHENOVISION phenotyping platform as described in Frontiers in Plant Science 2021, 12: 640914, except that an unfertilized potting soil was used and that plants were fertilized with a low-phosphate Hoagland solution. The 2.5× overconcentrated low-phosphate Hoagland solution contained 0.034 g/l KH2PO and 200 mL of this solution was applied twice a week. 1.4 mL of a 10 mM compound solution was added each two weeks to each pot, corresponding to 9.6 mg/g nutrients. 13 plants per condition were used. During the experiment, pictures were taken twice a week for each plants from 6 different angles and the top. Pictures were used to extract the plant height and to extract the projected plant area from each side and calculate an estimated plant volume over time.

For CC1CN(CC(=O)c2c(N)n(C)c(=O)n(C)c2=O)c2ccccc2O1 (stereo not shown) [Compound 8, 6-amino-1,3-dimethyl-5-[2-(2-methyl-2,3-dihydro-1,4-benzoxazin-4-yl)acetyl]pyrimidine-2,4-dione], the Leaf area ([1]; low phosphate, 10 μM, control 78) was 106 mm^2, the “Leaf area in sub-optimal phosphate conditions” value ([1]; sub-optimal phosphate, control 104) was 143 mm^2 and the Plant height ([2]; DKC2931, day 15, control 288) was 297 mm. The Estimated volume ([2]; DKC2931, day 15, control 361) was 393 cm^3, the Plant height ([2]; DKC2931, day 19, control 352) was 368 mm and the Estimated volume ([2]; DKC2931, day 19, control 576) was 763 cm^3. It also gave a Plant height ([2]; DKC2931, day 22, control 335) of 372 mm, an Estimated volume ([2]; DKC2931, day 22, control 843) of 1104 cm^3 and a Plant height ([2]; DKC2931, day 26, control 378) of 452 mm. For the same compound, the Estimated volume ([2]; DKC2931, day 26, control 1145) was 1646 cm^3, the Plant height ([2]; DKC2931, day 27, control 352) was 460 mm and the Estimated volume ([2]; DKC2931, day 27, control 1086) was 1826 cm^3. For the same compound, the Plant height ([2]; DKC2931, day 29, control 399) was 471 mm, the Estimated volume ([2]; DKC2931, day 29, control 1581) was 2187 cm^3 and the Plant height ([2]; DKC2931, day 33, control 424) was 553 mm. The Estimated volume ([2]; DKC2931, day 33, control 2272) was 3213 cm^3, the Plant height ([2]; DKC2931, day 36, control 531) was 634 mm and the Estimated volume ([2]; DKC2931, day 36, control 2854) was 3881 cm^3. It also gave a Plant height ([2]; DKC2931, day 40, control 578) of 694 mm, an Estimated volume ([2]; DKC2931, day 40, control 3872) of 5092 cm^3 and a Plant height ([2]; DKC2931, day 43, control 655) of 756 mm. It also gave an Estimated volume ([2]; DKC2931, day 43, control 4240) of 5538 cm^3, a Plant height ([2]; DKC2931, day 47, control 732) of 799 mm and an Estimated volume ([2]; DKC2931, day 47, control 4988) of 6770 cm^3. The Plant height ([2]; DKC2931, day 50, control 777) was 844 mm, the Estimated volume ([2]; DKC2931, day 50, control 5718) was 7419 cm^3 and the Plant height ([2]; DKC2931, day 54, control 562) was 652 mm. The Estimated volume ([2]; DKC2931, day 54, control 6325) was 8086 cm^3, the Plant height ([2]; DKC2931, day 57, control 678) was 894 mm and the Estimated volume ([2]; DKC2931, day 57, control 6295) was 7681 cm^3. For the same compound, the Plant height ([2]; DKC2931, day 61, control 893) was 1021 mm, the Estimated volume ([2]; DKC2931, day 61, control 6047) was 7458 cm^3 and the Plant height ([2]; DKC2931, day 63, control 811) was 880 mm. It also gave an Estimated volume ([2]; DKC2931, day 63, control 5546) of 6642 cm^3, a Plant height ([2]; DKC2931, day 68, control 849) of 895 mm and an Estimated volume ([2]; DKC2931, day 68, control 4292) of 4967 cm^3. For the same compound, the Plant height ([2]; DKC2931, day 71, control 856) was 916 mm, the Estimated volume ([2]; DKC2931, day 71, control 4022) was 4807 cm^3 and the Plant height ([2]; DKC2931, day 75, control 798) was 903 mm. For the same compound, the Estimated volume ([2]; DKC2931, day 75, control 3778) was 4587 cm^3, the “Average number of ears” value ([2]; Maize pot long term DKC2931, 2.5 months, low phosphate, control 1) was 1 and the Shoot weight ([2]; Maize pot long term DKC2931, low phosphate, control 27) was 33 g. The “Leaf 6” value ([2]; Maize pot long term DKC2931, low phosphate, control 53) was 58 cm.
